Patent US20260248135A1, “HERBICIDAL COMBINATIONS AND A METHOD FOR CONTROLLING UNDESIRED VEGETATION” (UPL Mauritius Limited, priority 2022, published 2026)

Experiments:
Assay type in all cases: in vivo
Brachiaria decumbens [1] = assay: Post-emergence herbicidal efficacy, Example 2 (L-glufosinate ammonium, saflufenacil and triclopyr)
Procedure: (§1) Methodology: Trials were carried out to evaluate the efficacy of the combination comprising L-glufosinate ammonium and additional herbicides on Brachiaria decumbens weed.
(§2) The soil used was sandy clay loam-sand: 68.0%; silt: 8.0%; clay: 24.0%.
(§3) All treatments were in 3 replications per treatment with a spray volume of about 150 L/ha.
(§4) The expected efficacy of a combination of L-glufosinate ammonium and the other herbicides was calculated using the well-established Colby method. Any difference between the observed and “expected” efficacy could be attributed to synergy between the two compounds.
(§5) In the Colby method, the expected (or predicted) response of a combination of herbicides is calculated by taking the product of the observed response for each individual component of the combination when applied alone, divided by 100, and subtracting this value from the sum of the observed response for each component when applied alone. An unexpected enhancement in efficacy of the combination is then determined by comparing the observed response of the combination to the expected (or predicted) response as calculated from the observed response of each individual component alone. If the observed response of the combination is greater than the expected (or predicted) response, or stated conversely, if the difference between the observed and expected response is greater than zero, then the combination is said to be synergistic or unexpectedly effective (Colby, S. R., Weeds, 1967 (15), p. 20-22). The Colby method requires only a single dose of each herbicide applied alone and the mixture of both doses. The formula used to calculate the expected efficacy (EE) which was compared with the observed efficacy (OE) to determine the efficacy of the present disclosure is explained hereinbelow:
(§6) The expected efficacy for a combination of three active ingredients is as follows:
(§7) wherein, • A=Observed efficacy of active ingredient A at the same concentration as used in the mixture. • B=Observed efficacy of the active ingredient B at the same concentration as used in the mixture. • C=Observed efficacy of the active ingredient C at the same concentration as used in the mixture.
Experiment was conducted to assess the efficacy of the herbicidal combination comprising L-glufosinate ammonium, saflufenacil and triclopyr to control the weed Brachiaria decumbens.
The percentage efficacy was calculated after 3, 7, 14, 21, 28 and 35 days of application (DAA). The target weed was Brachiaria decumbens, and the concentration of the herbicide and the results are recorded in Table 3.

Brachiaria decumbens [2] = assay: Post-emergence herbicidal efficacy, Example 1 (L-glufosinate ammonium and saflufenacil)
Procedure: as §1, §2, §3, §4, §5
The expected efficacy for a combination of two active ingredients is as follows:
as §7
Experiment was conducted to assess the efficacy of the herbicidal combination comprising L-glufosinate ammonium and saflufenacil to control Brachiaria decumbens.
The percentage efficacy was calculated after 3, 7, 14, 21, 28 and 35 days of applications (DAA). The target weed was Brachiaria decumbens, and the results are recorded in Table 2.

Brachiaria decumbens [3] = assay: Post-emergence herbicidal efficacy, Example 3 (L-glufosinate ammonium, saflufenacil and 2,4-D)
Procedure: as §1, §2, §3, §4, §5, §6, §7
Experiment was conducted to assess the efficacy of the herbicidal combination comprising L-glufosinate ammonium, saflufenacil and 2,4-D to control the weed Brachiaria decumbens.
The target weed was Brachiaria decumbens, and the concentration of the herbicide and the results are recorded in Table 4.

Structure (SMILES): O=C(O)COc1nc(Cl)c(Cl)cc1Cl [Triclopyr]
- Observed efficacy (%) of Triclopyr (228 g a.i./ha) (Brachiaria decumbens [1]; 3 DAA): 0%
- Observed efficacy (%) of Triclopyr (228 g a.i./ha) (Brachiaria decumbens [1]; 7 DAA): 0%
- Observed efficacy (%) of Triclopyr (228 g a.i./ha) (Brachiaria decumbens [1]; 14 DAA): 20%
- Observed efficacy (%) of Triclopyr (228 g a.i./ha) (Brachiaria decumbens [1]; 21 DAA): 10%
- Observed efficacy (%) of Triclopyr (228 g a.i./ha) (Brachiaria decumbens [1]; 28 DAA): 5%
- Observed efficacy (%) of Triclopyr (228 g a.i./ha) (Brachiaria decumbens [1]; 35 DAA): 0%

Structure (SMILES): CC(C)N(C)S(=O)(=O)NC(=O)c1cc(-n2c(=O)cc(C(F)(F)F)n(C)c2=O)c(F)cc1Cl [Saflufenacil]
- Observed efficacy (%) of Saflufenacil (30 g a.i./ha) (Brachiaria decumbens [1]; 3 DAA): 30%
- Observed efficacy (%) of Saflufenacil (30 g a.i./ha) (Brachiaria decumbens [1]; 7 DAA): 30%
- Observed efficacy (%) of Saflufenacil (30 g a.i./ha) (Brachiaria decumbens [1]; 14 DAA): 20%
- Observed efficacy (%) of Saflufenacil (30 g a.i./ha) (Brachiaria decumbens [1]; 21 DAA): 5%
- Observed efficacy (%) of Saflufenacil (30 g a.i./ha) (Brachiaria decumbens [1]; 28 DAA): 0%
- Observed efficacy (%) of Saflufenacil (30 g a.i./ha) (Brachiaria decumbens [1]; 35 DAA): 0%
- Observed efficacy (%) of Saflufenacil (30 g a.i./ha) (Brachiaria decumbens [2]; 3 DAA): 30%
- Observed efficacy (%) of Saflufenacil (30 g a.i./ha) (Brachiaria decumbens [2]; 7 DAA): 30%
- Observed efficacy (%) of Saflufenacil (30 g a.i./ha) (Brachiaria decumbens [2]; 14 DAA): 25%
- Observed efficacy (%) of Saflufenacil (30 g a.i./ha) (Brachiaria decumbens [2]; 21 DAA): 10%
- Observed efficacy (%) of Saflufenacil (30 g a.i./ha) (Brachiaria decumbens [2]; 28 DAA): 0%
- Observed efficacy (%) of Saflufenacil (30 g a.i./ha) (Brachiaria decumbens [2]; 35 DAA): 0%
- Observed efficacy (%) of Saflufenacil (30 g a.i./ha) (Brachiaria decumbens [3]; 3 DAA): 30%
- Observed efficacy (%) of Saflufenacil (30 g a.i./ha) (Brachiaria decumbens [3]; 7 DAA): 30%
- Observed efficacy (%) of Saflufenacil (30 g a.i./ha) (Brachiaria decumbens [3]; 14 DAA): 20%
- Observed efficacy (%) of Saflufenacil (30 g a.i./ha) (Brachiaria decumbens [3]; 21 DAA): 5%
- Observed efficacy (%) of Saflufenacil (30 g a.i./ha) (Brachiaria decumbens [3]; 28 DAA): 0%
- Observed efficacy (%) of Saflufenacil (30 g a.i./ha) (Brachiaria decumbens [3]; 35 DAA): 0%

Structure (SMILES): CP(=O)(O)CC[C@H](N)C(=O)O.N [L-glufosinate ammonium]
- Observed efficacy (%) of L-glufosinate ammonium (150 g a.i./ha) (Brachiaria decumbens [1]; 3 DAA): 65%
- Observed efficacy (%) of L-glufosinate ammonium (150 g a.i./ha) (Brachiaria decumbens [1]; 7 DAA): 75%
- Observed efficacy (%) of L-glufosinate ammonium (150 g a.i./ha) (Brachiaria decumbens [1]; 14 DAA): 75%
- Observed efficacy (%) of L-glufosinate ammonium (150 g a.i./ha) (Brachiaria decumbens [1]; 21 DAA): 70%
- Observed efficacy (%) of L-glufosinate ammonium (150 g a.i./ha) (Brachiaria decumbens [1]; 28 DAA): 65%
- Observed efficacy (%) of L-glufosinate ammonium (150 g a.i./ha) (Brachiaria decumbens [1]; 35 DAA): 60%
- Observed efficacy (%) of L-glufosinate ammonium (150 g a.i./ha) (Brachiaria decumbens [2]; 3 DAA): 65%
- Observed efficacy (%) of L-glufosinate ammonium (150 g a.i./ha) (Brachiaria decumbens [2]; 7 DAA): 75%
- Observed efficacy (%) of L-glufosinate ammonium (150 g a.i./ha) (Brachiaria decumbens [2]; 14 DAA): 75%
- Observed efficacy (%) of L-glufosinate ammonium (150 g a.i./ha) (Brachiaria decumbens [2]; 21 DAA): 70%
- Observed efficacy (%) of L-glufosinate ammonium (150 g a.i./ha) (Brachiaria decumbens [2]; 28 DAA): 60%
- Observed efficacy (%) of L-glufosinate ammonium (150 g a.i./ha) (Brachiaria decumbens [2]; 35 DAA): 55%
- Observed efficacy (%) of L-glufosinate ammonium (150 g a.i./ha) (Brachiaria decumbens [3]; 3 DAA): 65%
- Observed efficacy (%) of L-glufosinate ammonium (150 g a.i./ha) (Brachiaria decumbens [3]; 7 DAA): 75%
- Observed efficacy (%) of L-glufosinate ammonium (150 g a.i./ha) (Brachiaria decumbens [3]; 14 DAA): 75%
- Observed efficacy (%) of L-glufosinate ammonium (150 g a.i./ha) (Brachiaria decumbens [3]; 21 DAA): 70%
- Observed efficacy (%) of L-glufosinate ammonium (150 g a.i./ha) (Brachiaria decumbens [3]; 28 DAA): 65%
- Observed efficacy (%) of L-glufosinate ammonium (150 g a.i./ha) (Brachiaria decumbens [3]; 35 DAA): 60%

Structure (SMILES): O=C(O)COc1ccc(Cl)cc1Cl [2,4-D]
- Observed efficacy (%) of 2,4-D (228 g a.i./ha) (Brachiaria decumbens [3]; 3 DAA): 0%
- Observed efficacy (%) of 2,4-D (228 g a.i./ha) (Brachiaria decumbens [3]; 7 DAA): 0%
- Observed efficacy (%) of 2,4-D (228 g a.i./ha) (Brachiaria decumbens [3]; 14 DAA): 0%
- Observed efficacy (%) of 2,4-D (228 g a.i./ha) (Brachiaria decumbens [3]; 21 DAA): 0%
- Observed efficacy (%) of 2,4-D (228 g a.i./ha) (Brachiaria decumbens [3]; 28 DAA): 0%
- Observed efficacy (%) of 2,4-D (228 g a.i./ha) (Brachiaria decumbens [3]; 35 DAA): 0%
